Reference: US9243037B2, “Gramicidin a mutants that function as antibiotics with improved solubility and reduced toxicity” (Trustees of Boston College, priority 2011, dated 2016)
Entries after “also recorded” stand apart in the source; their conditions may differ.

Assays:
[1] = system: human red blood cells (hRBCs); assay: K+ leakage from hRBCs (flame atomic emission); assay type: cell-based
Protocol: The rest of supernatant (1.2 mL) from each sample prepared as described in the hemoglobin leakage assay was transferred into a new sterile eppendorf tube and subject to the K+ concentration measurement using a flame-atomic emission spectrometer (λem=766.5 nm, Perkin Elmer Atomic absorption Spectrometer 3100, acetylene/air flame). Three readings were taken for each sample and averaged as final results. The fraction of K+ leakage from hRBCs was calculated as percentage K+ leaked=100·(I776.5,peptide−I776.5,DMSO)/(I776.5,complete lysis−I776.5,DMSO).

[2] = system: Streptococcus pyogenes (ATCC 19615); settings: for MICs S. Pyogenes: ATCC 19615; for MIC relative to wild-type Gramicidin A: S. Pyogenes
[3] = system: human red blood cells (hRBCs); assay: Haemoglobin release from human red blood cells; assay type: cell-based; settings: for HC50 (50% haemoglobin leakage relative to 1% TritonX-100): red cells of human
Protocol: Fresh human red blood cells (hRBCs) were centrifuged at 3500 rpm and washed with PBS buffer until the supernatant was clear. The hRBCs were then resuspended and diluted to a final concentration of 1% (v/v) in PBS and used immediately. 15 μL of serial dilution (2-fold) of peptides in DMSO or DMSO alone as a negative control were added to 1.5 mL of hRBCs in PBS. The resulting mixture was gently shaken to mix well and incubated at 37° C. for 1 hr, followed by centrifugation at 3500 rpm for 10 min using tabletop centrifuge. Aliquots (50 μL) of the supernatant (in triplicates) were transferred into a sterile 96-well plate containing 50 μL of H2O in each well. Release of hemoglobin was monitored at 415 nm using a microtiter plate reader. Percentage hemolysis was calculated using percentage hemolysis=100·(A415, peptide-A415,DMSO)/(A415, complete hemolysis-A415, DMSO), where complete hemolysis is achieved by mixing hRBCs with 1% TritonX-100.

[4] = system: Bacillus subtilis (ATCC 663); settings: for MICs B. Subtilius: ATCC 663; for MIC relative to wild-type Gramicidin A: B. subtilis
[5] = Peptide binding onto membranes (Trp fluorescence); settings: for apparent dissociation constant (Kd) / binding: neutral POPC vesicles, in words
[6] = system: Staphylococcus aureus (ATCC 6538); settings: for MICs S. Aureus: ATCC 6538; for MIC relative to wild-type Gramicidin A: S. Aureus
[7] = Trp absorbance @ 280 nm; 10 mM PBS, pH 7.0, 1% DMSO; values taken from ref; cited from earlier work
[8] = Peptide binding onto membranes (Trp fluorescence); settings: negatively charged POPC/POPG vesicles; in words
[9] = physchem; assay type: physicochemical
Protocol: Peptide solubility in 10 mM HEPES buffer with 1% DMSO was measured by monitoring tryptophan absorbance. A concentrated (6.0-8.0 mM) peptide stock solution in DMSO was diluted 100 times (5 μL of the stock into 500 jtl of 10 mM HEPES buffer, pH 7.0). The mixture was sonicated for 30 mins and then subject to centrifugation (14,000 rpm, 10 mins) to remove possible precipitate. The supernatant (400 μL) was transferred to a quartz cuvette and the peptide concentration was determined by tryptophan absorbance at 280 nm (ε=22760 M−1 cm-1). The UV/Vis spectra of the supernatant can be seen in FIG. 1 and FIG. 5.

[10] = K+ release from liposomes, lipid not specified; assay type: biochemical; settings: in words
Protocol: With the D-Lys residues incorporated towards the C-terminus, the gA peptide analogs described herein display amphipathic sequences. Since many amphipathic peptides are known to cause membrane damage through a detergent-like mechanism instead of forming specific channels,[19] it was further examined whether it is the case with the gA peptide analogs provided herein. Toward this end, the ion selectivity of gA-3, 4, and 5 was assessed by using liposomes encapsulating K+ and Tb3+ respectively. […] The wild type like channel structure of the D-Lys mutants is further supported by the fact that gA-5 and gA-WT share similar signatures in their circular dichroism spectra (FIG. 11). This exclusive leakage of monovalent cations presents a great advantage of the gA analog peptides described herein in comparison to the majority of AMPs, which often cause catastrophic membrane collapse to release all bacterial cellular content, leading to potential complications of over-stimulated immune response.
The K+ leakage from liposomes was determined by a potassium ion selective electrode (K-ISE, Cole-Parmer, Vernon Hills, Ill.). The electrode was calibrated each day before experiments. A liposome solution in Buffer A (2 mL, 500 μM POPC or POPC/POPG⊃10 mM HEPES, 150 mM KCl, pH 7.0) was stirred at constant speed and peptide at various concentration (1 μL in DMSO) was added accumulatively. Three minutes after each peptide addition, the K+ concentration was measured and reported as the K-ISE potential. At the end of each experiment, gA-WT stock (1 μL, 1 mM) was added to induce 100% K+ leakage. The potential reported by the K-ISE was plotted against peptide concentration after the background noise (caused by DMSO addition) was subtracted and normalized to 0-100%.

[11] = Tb3+ leakage from liposomes, lipid not specified; assay type: biochemical; settings: at peptide concentrations causing complete K+ release; in words

Compound | KC50 (50% K+ ion leakage relative to 1% TritonX-100) [1] | peptide concentration for 50% K+ ion leakage, fold greater than wild-type Gramicidin A [1] | MICs S. Pyogenes [2] | MIC relative to wild-type Gramicidin A [2] | HC50 (50% haemoglobin leakage relative to 1% TritonX-100) [3] | MICs B. Subtilius [4] | MIC relative to wild-type Gramicidin A [4] | apparent dissociation constant (Kd) / binding [5] | MICs S. Aureus [6] | MIC relative to wild-type Gramicidin A [6] | Sat. Conc, Lys series [7] | apparent dissociation constant (Kd) / binding [8] | water solubility, fold higher than wild-type Gramicidin A [9] | K+ release from LUVs [10] | haemoglobin leakage from hRBCs [3] | reduced affinity to POPC vesicles [5] | Tb3+ leakage from LUVs [11]
CC(C)C[C@@H](NC(=O)[C@H](C)NC(=O)CNC(=O)[C@@H](NC=O)C(C)C)C(=O)N[C@@H](C)C(=O)N[C@@H](C(=O)N[C@H](C(=O)N[C@@H](C(=O)N[C@@H](Cc1c[nH]c2ccccc12)C(=O)N[C@H](CCCCN)C(=O)N[C@@H](Cc1c[nH]c2ccccc12)C(=O)N[C@H](CC(C)C)C(=O)N[C@@H](Cc1c[nH]c2ccccc12)C(=O)N[C@H](CC(C)C)C(=O)N[C@@H](Cc1c[nH]c2ccccc12)C(=O)NCCO)C(C)C)C(C)C)C(C)C (racemic) [gA-1, formyl-V-G-A-dL-A-dV-V-dV-W-dK-W-dL-W-dL-W-NHCH2CH2OH] | 0.01 µM | ~100 fold | 0.16 µM | equivalent to that of wild-type Gramicidin A | 5~10 μM | 5 µM | equivalent to that of wild-type Gramicidin A | apparent Kd values close to that of gA-WT | 2.5 µM | equivalent to that of wild-type Gramicidin A | 10 µM | apparent Kd values close to that of gA-WT | ~200 fold |  |  |  | 
CC(C)C[C@@H](NC(=O)[C@H](C)NC(=O)CNC(=O)[C@@H](NC=O)C(C)C)C(=O)N[C@@H](C)C(=O)N[C@@H](C(=O)N[C@H](C(=O)N[C@@H](C(=O)N[C@@H](Cc1c[nH]c2ccccc12)C(=O)N[C@H](CCCCN)C(=O)N[C@@H](Cc1c[nH]c2ccccc12)C(=O)N[C@H](CC(C)C)C(=O)N[C@@H](Cc1c[nH]c2ccccc12)C(=O)N[C@H](CCCCN)C(=O)N[C@@H](Cc1c[nH]c2ccccc12)C(=O)NCCO)C(C)C)C(C)C)C(C)C (racemic) [gA-3, formyl-V-G-A-dL-A-dV-V-dV-W-dK-W-dL-W-dK-W-NHCH2CH2OH] | 5~10 μM | greater than 10^5 fold | 0.32 µM | ~2 fold | >70 µM | 5 µM | ~2 fold |  | 5 µM | ~2 fold | 38 µM | comparable to that of gA-WT | ~740 fold | potent activity in K+ release | not enough to cause 50% haemoglobin leakage | ~70 folds | essentially no Tb3+ leakage; also recorded: behave similarly to gA-5
CC(C)C[C@@H](NC(=O)[C@H](C)NC(=O)CNC(=O)[C@@H](NC=O)C(C)C)C(=O)N[C@@H](C)C(=O)N[C@@H](C(=O)N[C@H](C(=O)N[C@@H](C(=O)N[C@@H](Cc1c[nH]c2ccccc12)C(=O)N[C@H](CCCCN)C(=O)N[C@@H](Cc1c[nH]c2ccccc12)C(=O)N[C@H](CCCCN)C(=O)N[C@@H](Cc1c[nH]c2ccccc12)C(=O)N[C@H](CC(C)C)C(=O)N[C@@H](Cc1c[nH]c2ccccc12)C(=O)NCCO)C(C)C)C(C)C)C(C)C (racemic) [gA-4, formyl-V-G-A-dL-A-dV-V-dV-W-dK-W-dK-W-dL-W-NHCH2CH2OH] | 5~10 μM | over 10^5 fold | 0.16 µM | equivalent to or ˜2-fold higher | >100 µM | 2.5 µM | equivalent to or ˜2-fold higher |  | 5 µM | equivalent to or ˜2-fold higher | 39 µM | comparable to that of gA-WT | ~740 fold | potent activity in K+ release | not enough to cause 50% haemoglobin leakage | ~70 folds | essentially no Tb3+ leakage; also recorded: behave similarly to gA-5
CC(C)C[C@@H](NC(=O)[C@H](C)NC(=O)CNC(=O)[C@@H](NC=O)C(C)C)C(=O)N[C@@H](C)C(=O)N[C@@H](C(=O)N[C@H](C(=O)N[C@@H](C(=O)N[C@@H](Cc1c[nH]c2ccccc12)C(=O)N[C@H](CC(C)C)C(=O)N[C@@H](Cc1c[nH]c2ccccc12)C(=O)N[C@H](CC(C)C)C(=O)N[C@@H](Cc1c[nH]c2ccccc12)C(=O)N[C@H](CCCCN)C(=O)N[C@@H](Cc1c[nH]c2ccccc12)C(=O)NCCO)C(C)C)C(C)C)C(C)C (racemic) [gA-2, formyl-V-G-A-dL-A-dV-V-dV-W-dL-W-dL-W-dK-W-NHCH2CH2OH] | 0.01 µM | ~100 fold | 0.16 µM | equivalent to that of wild-type Gramicidin A | 5~10 μM | 5 µM | equivalent to that of wild-type Gramicidin A | apparent Kd values close to that of gA-WT | 2.5 µM | equivalent to that of wild-type Gramicidin A | 11 µM | apparent Kd values close to that of gA-WT | ~200 fold |  |  |  | 
